# Legend:
# PXR [1] = target: T1, PXR (Homo sapiens, UniProt O75469); experiment: hPXR binding assay; conditions: for inhibition at 10 µM: read-out: Binding (% inhibition at 10 μM)
# T1 sequence (O75469 1-434): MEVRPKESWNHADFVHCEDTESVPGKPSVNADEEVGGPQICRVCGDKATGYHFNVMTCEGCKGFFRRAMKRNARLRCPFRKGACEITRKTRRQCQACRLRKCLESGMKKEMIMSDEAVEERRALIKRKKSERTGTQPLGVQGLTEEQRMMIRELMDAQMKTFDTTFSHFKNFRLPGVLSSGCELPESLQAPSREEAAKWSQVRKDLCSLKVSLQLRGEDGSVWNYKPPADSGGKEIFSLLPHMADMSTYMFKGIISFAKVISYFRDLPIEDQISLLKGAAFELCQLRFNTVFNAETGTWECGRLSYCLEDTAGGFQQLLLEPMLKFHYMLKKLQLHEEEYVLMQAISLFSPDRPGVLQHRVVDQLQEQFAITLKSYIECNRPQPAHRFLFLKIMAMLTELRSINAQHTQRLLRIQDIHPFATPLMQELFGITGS
# PXR [2] = target: T1, PXR; experiment: cell-based hPXR antagonistic assay; conditions: for inhibition at 10 µM: read-out: Antagonist (% inhibition at 10 μM); for IC50: read-out: Antagonist (IC50/μM)
Compound,IC50 (PXR [1]) [µM],inhibition at 10 µM (PXR [1]) [%],inhibition at 10 µM (PXR [2]) [%],IC50 (PXR [2]) [µM]
"COc1ccc(OC)c(-n2nnc(C(=O)Oc3cccc4c3C(=O)N(C3CCC(=O)NC3=O)C4=O)c2C)c1 (centres unmarked) [Compound M2, 2-(2,6-dioxopiperidin-3-yl)-1,3-dioxoisoindolin-4-yl 1-(2,5-dimethoxyphenyl)-5-methyl-1H-1,2,3-triazole-4-carboxylate]",2.69 ± 1.33,46,–,–
"COc1ccc(OC)c(-n2nnc(C(=O)Nc3cc(C(C)(C)C)ccc3OCCCCNc3cccc4c3CN(C3CCC(=O)NC3=O)C4=O)c2C)c1 (centres unmarked) [Compound M13, N-(5-(tert-butyl)-2-(4-((2-(2,6-dioxopiperidin-3-yl)-1-oxoisoindolin-4-yl)amino)butoxy)phenyl)-1-(2,5-dimethoxyphenyl)-5-methyl-1H-1,2,3-triazole-4-carboxamide]",–,–,40,41 ± 5.3
"COc1ccc(OC)c(-n2nnc(C(=O)Nc3cc(NC(=O)CCCNC(=O)COc4cccc5c4C(=O)N(C4CCC(=O)NC4=O)C5=O)cc(C(C)(C)C)c3)c2C)c1 (centres unmarked) [Compound M15, N-(3-(tert-butyl)-5-(4-(2-((2-(2,6-dioxopiperidin-3-yl)-1,3-dioxoisoindolin-4-yl)oxy)acetamido)butanamido)phenyl)-1-(2,5-dimethoxyphenyl)-5-methyl-1H-1,2,3-triazole-4-carboxamide]",2.19 ± 1.35,30,–,–
"COc1ccc(OC)c(-n2nnc(C(=O)Nc3cc(OCCCCCCCCOc4cccc5c4C(=O)N(C4CCC(=O)NC4=O)C5=O)cc(C(C)(C)C)c3)c2C)c1 (centres unmarked) [Compound M16, N-(3-(tert-butyl)-5-((8-((2-(2,6-dioxopiperidin-3-yl)-1,3-dioxoisoindolin-4-yl)oxy)octyl)oxy)phenyl)-1-(2,5-dimethoxyphenyl)-5-methyl-1H-1,2,3-triazole-4-carboxamide]",–,–,57,2.02 ± 0.47
"COc1ccc(OC)c(-n2nnc(C(=O)Nc3cc(C(C)(C)C)ccc3OCCCCCCCCOc3cccc4c3C(=O)N(C3CCC(=O)NC3=O)C4=O)c2C)c1 (centres unmarked) [Compound M19, N-(5-(tert-butyl)-2-((8-((2-(2,6-dioxopiperidin-3-yl)-1,3-dioxoisoindolin-4-yl)oxy)octyl)oxy)phenyl)-1-(2,5-dimethoxyphenyl)-5-methyl-1H-1,2,3-triazole-4-carboxamide]",–,–,30,2.52 ± 1.38
"COc1ccc(OC)c(-n2nnc(C(=O)Nc3cc(C(C)(C)C)ccc3OCCOCCOCCOCCOCCOCCOc3cccc4c3C(=O)N(C3CCC(=O)NC3=O)C4=O)c2C)c1 (centres unmarked) [Compound M20, N-(5-(tert-butyl)-2-((17-((2-(2,6-dioxopiperidin-3-yl)-1,3-dioxoisoindolin-4-yl)oxy)-3,6,9,12,15-pentaoxaheptadecyl)oxy)phenyl)-1-(2,5-dimethoxyphenyl)-5-methyl-1H-1,2,3-triazole-4-carboxamide]",4.9 ± 0.8,64,58,6.33 ± 0.74
"COc1ccc(OC)c(-n2nnc(C(=O)Nc3cc(C(C)(C)C)ccc3OCCOCCOCCOCCN3C(=O)CCC(N4Cc5c(N)cccc5C4=O)C3=O)c2C)c1 (centres unmarked) [Compound N2, N-(2-(2-(2-(2-(2-(3-(4-amino-1-oxoisoindolin-2-yl)-2,6-dioxopiperidin-1-yl)ethoxy)ethoxy)ethoxy)ethoxy)-5-(tert-butyl)phenyl)-1-(2,5-dimethoxyphenyl)-5-methyl-1H-1,2,3-triazole-4-carboxamide]",7.23 ± 4.88,27,32,5 ± 1.16
"COc1ccc(OC)c(-n2nnc(C(=O)Nc3cc(OCCCCCCCCN4C(=O)CCC(N5Cc6c(N)cccc6C5=O)C4=O)cc(C(C)(C)C)c3)c2C)c1 (centres unmarked) [Compound N6, N-(3-((8-(3-(4-amino-1-oxoisoindolin-2-yl)-2,6-dioxopiperidin-1-yl)octyl)oxy)-5-(tert-butyl)phenyl)-1-(2,5-dimethoxyphenyl)-5-methyl-1H-1,2,3-triazole-4-carboxamide]",–,–,11,6.51 ± 0.71
